# Results reported in patent publication US11578061B2, “Inhibitors of LRRK2 kinase” (Halia Therapeutics, Inc., priority 2021, dated 2023).
# Biological target: recombinant human LRRK2 (catalytic domain only [amino acids 970-2527], GST-tagged) (Homo sapiens (Human), UniProt Q5S007)
# Assay: LRRK2 Enzymatic Assay
# Format: biochemical
# Conditions: LRRKtide substrate, [32P]-ATP
# In short: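 GST-tagged catalytic domain (aa 970-2527) at 30 nM with 20 μM LRRKtide in HEPES pH 7.5/MgCl2 buffer, 1% DMSO; compounds (10 μM to 0.5 nM) preincubated 20 min, then [32P]-ATP added for 2 h at room temperature. P81 phosphocellulose capture; activity as % of vehicle, IC50 by curve fit.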
# Chain of recombinant human LRRK2 (catalytic domain only [amino acids 970-2527], GST-tagged) (Q5S007 970-2527): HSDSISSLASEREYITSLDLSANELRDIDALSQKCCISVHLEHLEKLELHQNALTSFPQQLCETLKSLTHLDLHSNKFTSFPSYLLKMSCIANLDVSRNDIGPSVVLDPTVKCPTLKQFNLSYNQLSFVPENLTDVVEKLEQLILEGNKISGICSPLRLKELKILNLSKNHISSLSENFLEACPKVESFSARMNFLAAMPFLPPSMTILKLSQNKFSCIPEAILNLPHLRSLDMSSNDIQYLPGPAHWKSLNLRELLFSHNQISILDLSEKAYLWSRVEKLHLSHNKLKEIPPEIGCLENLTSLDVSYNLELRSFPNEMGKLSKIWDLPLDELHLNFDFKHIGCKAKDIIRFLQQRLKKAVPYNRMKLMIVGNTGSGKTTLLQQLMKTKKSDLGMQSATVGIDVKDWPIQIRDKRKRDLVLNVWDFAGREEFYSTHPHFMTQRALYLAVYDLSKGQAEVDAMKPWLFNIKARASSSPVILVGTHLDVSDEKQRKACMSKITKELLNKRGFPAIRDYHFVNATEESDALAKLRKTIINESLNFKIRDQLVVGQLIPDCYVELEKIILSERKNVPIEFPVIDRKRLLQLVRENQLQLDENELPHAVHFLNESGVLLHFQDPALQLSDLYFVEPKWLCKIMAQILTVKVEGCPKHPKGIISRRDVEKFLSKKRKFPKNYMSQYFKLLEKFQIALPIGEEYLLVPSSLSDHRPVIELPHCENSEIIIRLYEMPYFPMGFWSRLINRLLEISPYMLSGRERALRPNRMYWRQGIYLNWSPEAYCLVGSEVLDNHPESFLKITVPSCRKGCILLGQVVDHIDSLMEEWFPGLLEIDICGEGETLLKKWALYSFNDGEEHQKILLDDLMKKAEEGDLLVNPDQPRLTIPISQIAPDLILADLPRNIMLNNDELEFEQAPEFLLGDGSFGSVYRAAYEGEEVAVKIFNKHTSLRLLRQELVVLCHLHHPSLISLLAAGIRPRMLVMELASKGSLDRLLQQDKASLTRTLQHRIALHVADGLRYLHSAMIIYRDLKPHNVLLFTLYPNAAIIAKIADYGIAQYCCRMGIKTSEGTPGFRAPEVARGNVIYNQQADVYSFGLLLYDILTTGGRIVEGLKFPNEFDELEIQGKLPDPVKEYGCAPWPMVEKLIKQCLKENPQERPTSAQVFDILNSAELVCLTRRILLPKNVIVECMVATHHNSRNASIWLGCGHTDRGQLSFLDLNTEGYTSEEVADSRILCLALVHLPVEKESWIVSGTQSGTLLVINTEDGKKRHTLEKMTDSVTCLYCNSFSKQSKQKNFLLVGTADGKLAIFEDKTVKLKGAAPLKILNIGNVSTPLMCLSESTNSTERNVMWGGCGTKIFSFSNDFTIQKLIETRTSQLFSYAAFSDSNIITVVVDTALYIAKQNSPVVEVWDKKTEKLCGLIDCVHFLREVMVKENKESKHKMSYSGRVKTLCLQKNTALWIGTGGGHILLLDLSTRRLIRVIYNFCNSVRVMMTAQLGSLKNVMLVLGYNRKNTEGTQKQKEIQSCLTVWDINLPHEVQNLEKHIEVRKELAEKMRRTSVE
row,IC50 [nM],Structure (SMILES)
1,< 50,"Cc1c(Nc2ncc(Cl)c(OCC3CCN(C)CC3)n2)cnn1C1CC(C#N)C1 (centres unmarked) [Example 58, 3-(4-((5-chloro-4-((1-methylpiperidin-4-yl)methoxy)pyrimidin-2-yl)amino)-5-methyl-1H-pyrazol-1-yl)cyclobutane-1-carbonitrile]"
2,< 50,"O[C@H]1CC[C@H](COc2nc(Nc3cnn(CCF)c3)ncc2F)CC1 [Example 224, (1R,4R)-4-(((5-fluoro-2-((1-(2-fluoroethyl)-1H-pyrazol-4-yl)amino)pyrimidin-4-yl)oxy)methyl)cyclohexan-1-ol]"
3,50 to 200,"O[C@H]1CC[C@H](COc2nc(Nc3cnn(C4CC4)c3)ncc2F)CC1 [Example 220, (1R,4R)-4-(((2-((1-cyclopropyl-1H-pyrazol-4-yl)amino)-5-fluoropyrimidin-4-yl)oxy)methyl)cyclohexan-1-ol]"
4,< 50,"COc1nn(C2CC2)cc1Nc1ncc(F)c(OC[C@H]2CC[C@H](NC(C)=O)CC2)n1 [Example 208, N-((1R,4R)-4-(((2-((1-cyclopropyl-3-methoxy-1H-pyrazol-4-yl)amino)-5-fluoropyrimidin-4-yl)oxy)methyl)cyclo-hexyl)acetamide]"
5,> 400,"C[C@@H]1CN(c2ccc(Nc3nccc(OCC45CCC(O)(CC4)CC5)n3)cc2)C[C@H](C)O1 [Example 142, 4-(((2-((4-((2S,6R)-2,6-dimethylmorpholino)phenyl)amino)pyrimidin-4-yl)oxy)methyl)bicyclo[2.2.2]octan-1-ol]"
6,< 50,"CN[C@H]1CC[C@H](COc2ccnc(Nc3ccc(N4CCOCC4)cc3)n2)CC1 [Example 31, 4-(((1R,4R)-4-(methylamino)cyclo-hexyl)methoxy)-N-(4-morpholinophenyl) pyrimidin-2-amine]"
7,< 50,"Cc1nn(C(C)(C)C#N)cc1Nc1ncc(F)c(OCC2CC(C#N)C2)n1 (single isomer, unassigned) [Example 290, 3-(((2-((1-(2-cyanopropan-2-yl)-3-methyl-1H-pyrazol-4-yl)amino)-5-fluoropyrimidin-4-yl)oxy)methyl)cyclobutane-1-carbonitrile]"
8,50 to 200,"O[C@H]1CC[C@H](COc2nc(Nc3cnn(CC(F)(F)F)c3)ncc2F)CC1 [Example 223, (1R,4R)-4-(((5-fluoro-2-((1-(2,2,2-trifluoroethyl)-1H-pyrazol-4-yl)amino)pyrimidin-4-yl)oxy)methyl)cyclohexan-1-ol]"
9,< 50,"COc1cnc(Nc2ccc(N3CCOCC3)cc2)nc1OCC1CCCCC1 [Example 152, 4-(cyclohexylmethoxy)-5-methoxy-N-(4-morpholinophenyl)pyrimidin-2-amine]"
10,< 50,"CC(=O)N[C@H]1CC[C@H](COc2nc(Nc3cn(C(C)(C)C#N)nc3C)ncc2F)CC1 [Example 84, N-((1R,4R)-4-(((2-((1-(2-cyanopropan-2-yl)-3-methyl-1H-pyrazol-4-yl)amino)-5-fluoropyrimidin-4-yl)oxy)methyl)cyclo-hexyl)acetamide]"
11,50 to 200,"C[C@@H]1CN(c2ccc(Nc3ncc(F)c(OCC4CCNCC4F)n3)cc2)C[C@H](C)O1 (single isomer, unassigned) [Example 169]"
12,< 50,"CN[C@H]1CC[C@H](COc2nc(Nc3ccc(N4CCOCC4)cc3)ncc2OC)CC1 [Example 35, 5-methoxy-4-(((1R,4R)-4-(methylamino)cyclo-hexyl)methoxy)-N-(4-morpholinophenyl) pyrimidin-2-amine]"
13,50 to 200,"CC(C)n1cc(Nc2ncc(F)c(OC[C@H]3CC[C@H](O)CC3)n2)cn1 [Example 218, (1R,4R)-4-(((5-fluoro-2-((1-isopropyl-1H-pyrazol-4-yl)amino)pyrimidin-4-yl)oxy)methyl)cyclohexan-1-ol]"

# The next lines start with the compound.
row,Structure (SMILES),IC50 [nM]
1,"CN[C@H]1CC[C@@H](COc2nc(Nc3cn(C4CC(C#N)C4)nc3C)ncc2Cl)C1 (stereo partly drawn) [Example 53, 3-(4-((5-chloro-4-(((1R,3S)-3-(methylamino)cyclo-pentyl)methoxy)py-rimidin-2-yl)amino)-3-methyl-1H-pyrazol-1-yl)cyclobutane-1-carbonitrile]",< 50
2,"C[C@@H]1CN(c2ccc(Nc3ncc(F)c(OCC4CCC(OC(F)(F)F)CC4)n3)cc2)C[C@H](C)O1 (stereo partly drawn) [Example 283, N-(4-((2S,6R)-2,6-dimethylmorpholino)phenyl)-5-fluoro-4-((4-(trifluoromethoxy)cyclohexyl)methoxy)pyrimidin-2-amine]",> 400
3,"CC(C)n1cc(Nc2ncc(F)c(OC[C@H]3CC[C@H](O)CC3)n2)c(Cl)n1 [Example 238, (1R,4R)-4-(((2-((3-chloro-1-isopropyl-1H-pyrazol-4-yl)amino)-5-fluoropyrimidin-4-yl)oxy)methyl)cyclohexan-1-ol]",200 to 400
4,"Cc1nn(C(C)(C)C#N)cc1Nc1nccc(OCC2(F)CCN(C)CC2)n1 [Example 60, 2-(4-((4-((4-fluoro-1-methylpiperidin-4-yl)methoxy)pyrimidin-2-yl)amino)-3-methyl-1H-pyrazol-1-yl)-2-methylpropanenitrile]",> 400
5,"N[C@H]1CC[C@H](COc2ccnc(Nc3cccc(N4CCOCC4)c3)n2)CC1 [Example 6, 4-(((1R,4R)-4-aminocyclohexyl)methoxy)-N-(3-morpholinophenyl) pyrimidin-2-amine]",< 50
6,"Cc1nn(C2CC(C#N)C2)cc1Nc1ncc(Cl)c(OCC2(F)CCNCC2)n1 (centres unmarked) [Example 21, 3-(4-((5-chloro-4-((4-fluoropiperidin-4-yl)methoxy)pyrimidin-2-yl)amino)-3-methyl-1H-pyrazol-1-yl)cyclobutane-1-carbonitrile]",< 50
7,"C[C@@H]1CN(c2ccc(Nc3ncc(F)c(OCC4CCC(F)(F)CC4)n3)cc2)C[C@H](C)O1 [Example 269, 4-((4,4-difluorocyclohexyl)methoxy)-N-(4-((2R,6S)-2,6-dimethylmorpholino)phenyl)-5-fluoropyrimidin-2-amine]",200 to 400
8,"CNC1CCCC(COc2ccnc(Nc3ccc(N4CCOCC4)cc3)n2)C1 (centres unmarked) [Example 47, 4-((3-(methylamino)cyclo-hexyl)methoxy)-N-(4-morpholinophenyl) pyrimidin-2-amine]",200 to 400
9,"CN[C@H]1CC[C@H](COc2ccnc(Nc3cn(C(C)(C)C#N)nc3C)n2)CC1 [Example 32, 2-methyl-2-(3-methyl-4-((4-(((1R,4R)-4-(methylamino)cyclo-hexyl)methoxy)pyrimidin-2-yl)amino)-1H-pyrazol-1-yl)propanenitrile]",< 50
10,"OC1CCC(COc2nc(Nc3ccc(N4CCOCC4)cc3)ncc2F)CC1 (centres unmarked) [Example 123, 4-(((5-fluoro-2-((4-morpholinophenyl)amino)pyrimidin-4-yl)oxy)methyl)cyclohexan-1-ol]",50 to 200
11,"COC1CCC(COc2ccnc(Nc3cn(C(C)(C)C#N)nc3C)n2)CC1 (centres unmarked) [Example 162, 2-(4-((4-((4-methoxycyclohexyl)methoxy)pyrimidin-2-yl)amino)-3-methyl-1H-pyrazol-1-yl)-2-methylpropanenitrile]",200 to 400
12,"Cn1ccc(Nc2nccc(OC[C@H]3CC[C@H](N)CC3)n2)n1 [Example 4, 4-(((1R,4R)-4-aminocyclohexyl)methoxy)-N-(1-methyl-1H-pyrazol-3-yl)pyrimidin-2-amine]",50 to 200
13,"Cc1nn(C(C)(C)C#N)cc1Nc1ncc(Cl)c(OCC2CCC(C(F)(F)F)CC2)n1 (centres unmarked) [Example 157, 2-(4-((5-chloro-4-((4-(trifluoromethyl)cyclohexyl)methoxy)pyrimidin-2-yl)amino)-3-methyl-1H-pyrazol-1-yl)-2-methylpropanenitrile]",50 to 200
14,"Cc1nn(C(C)(C)C#N)cc1Nc1ncc(Cl)c(OCC2(F)CCN(C)CC2)n1 [Example 61, 2-(4-((5-chloro-4-((4-fluoro-1-methylpiperidin-4-yl)methoxy)pyrimidin-2-yl)amino)-3-methyl-1H-pyrazol-1-yl)-2-methylpropanenitrile]",< 50
15,"CN[C@H]1CC[C@H](COc2nc(Nc3cn(C4CC(C#N)C4)nc3C)ncc2Cl)CC1 (stereo partly drawn) [Example 40, 3-(4-((5-chloro-4-(((1R,4R)-4-(methylamino)cyclo-hexyl)methoxy)py-rimidin-2-yl)amino)-3-methyl-1H-pyrazol-1-yl)cyclobutane-1-carbonitrile]",< 50
16,"COC1CCC(COc2nc(Nc3cn(C(C)(C)C#N)nc3C)ncc2Cl)CC1 (centres unmarked) [Example 161, 2-(4-((5-chloro-4-((4-methoxycyclohexyl)methoxy)pyrimidin-2-yl)amino)-3-methyl-1H-pyrazol-1-yl)-2-methylpropanenitrile]",< 50
17,"FC(F)CN1CCC(COc2nc(Nc3ccc(N4CCOCC4)cc3)ncc2Cl)CC1 [Example 113, 5-chloro-4-((1-(2,2-difluoroethyl)piperidin-4-yl)methoxy)-N-(4-morpholino-phenyl) pyrimidin-2-amine]",< 50
18,Cc1nn(C(C)(C)C#N)cc1Nc1ncc(F)c(OC[C@H]2CC[C@@H](O)[C@H](F)C2)n1 [Example 259],< 50
19,"Cc1nn(C(C)C)cc1Nc1ncc(F)c(OC[C@H]2CC[C@H](O)CC2)n1 [Example 230, (1R,4R)-4-(((5-fluoro-2-((1-isopropyl-3-methyl-1H-pyrazol-4-yl)amino)pyrimidin-4-yl)oxy)methyl)cyclohexan-1-ol]",50 to 200
20,"C[C@@H]1CN(c2ccc(Nc3ncc(F)c(OCC45CCC(O)(CC4)CC5)n3)cc2)C[C@H](C)O1 [Example 143, 4-(((2-((4-((2S,6R)-2,6-dimethylmorpholino)phenyl)amino)-5-fluoropyrimidin-4-yl)oxy)methyl)bicyclo[2.2.2]octan-1-ol]",50 to 200
21,"OC1(C(F)(F)F)CCC(COc2nc(Nc3ccc(N4CCOCC4)cc3)ncc2F)CC1 (centres unmarked) [Example 260, 4-(((5-fluoro-2-((4-morpholinophenyl)amino)pyrimidin-4-yl)oxy)methyl)-1-(trifluoromethyl)cyclohexan-1-ol]",50 to 200
22,"CC(C)n1cc(Nc2ncc(F)c(OCC3CCNCC3(F)F)n2)cn1 (centres unmarked) [Example 164, 4-((3,3-difluoropiperidin-4-yl)methoxy)-5-fluoro-N-(1-isopropyl-1H-pyrazol-4-yl)pyrimidin-2-amine]",< 50
